In patent US8765786B2, “1-substituted indazole derivative” (Dainippon Sumitomo Pharma Co., Ltd., priority 2012, dated 2014):

Target: T1, human α7 nAChR (Homo sapiens, UniProt P36544)
T1 construct: expressed in transfected cells; host or cells: GH4C1 cells derived from rat pituitary (ATCC CCL-82.2)
Test: Evaluation of PAM activity with human α7 nACh receptor stably expressing cells (aequorin luminescence, FDSS7000)
Assay type: cell-based
Details: for activity at 10 µM / α7PAM (%) @ 10 μmol/L: test compound 10 μmol/L, ACh added at EC20, ratio of RLU (Max-Min) of test wells to control wells; for activity at 10 µM: read-out: α7PAM (%) @ 10 μmol/L
Excerpt: Human α7 nAChR stably expressing cells were generated and cultured. In detail, GH4C1 cells derived from rat pituitary (cat#CCL-82.2, ATCC, USA) were used as a host cell. PcDNA3.1Zeo vector containing a nucleotide sequence encoding a protein GenBank BAC81731 and pcDNA3.1 vector containing human α7 nAChR gene (cat#V790-20, invitrogen, Carlsbad, Calif., USA) were transfected to the cells to give aequorins and human α7 nAChR stably expressing cells respectively. The aequorins and human α7 nAChR stably expressing cells were screened with Zeocin (cat#R25001, invitrogen, Carlsbad, Calif., USA) and Geneticin (cat #10131-027, invitrogen, Carlsbad, Calif., USA) respectively.
The cells were cultured in F-10 Nutrient Mixture (Ham) medium (cat #11550-043, invitrogen, Carlsbad, Calif., USA) containing 2.5% fetal bovine serum (cat #2917354, ICN Biomedicals, Inc, USA), 15% inactivated horse serum (cat #26050-088, invitrogen, Carlsbad, Calif., USA), 1 μg/mL Geneticin, and 5 μg/mL Puromycin (cat #14861-84, invitrogen, Carlsbad, Calif., USA), in a Collagen Type 1-coated dish (cat #4030-010, iwaki, Tokyo, Japan). During the culture, the medium was replaced with fresh medium in every 2 to 3 days, and the cells were treated with TrypLE Express (cat #45604-021, invitrogen, Carlsbad, Calif., USA) to collect them in every 7 days. Thus, the cells were subcultured.
7 Days after subculturing, the cells were treated with TrypLE Express to collect them when they were about 80% confluent. The cells were suspended in a reaction medium containing Hanks (cat #14065-056, invitrogen, Carlsbad, Calif., USA)/20 mmol/L Hepes (cat #15630-080, invitrogen, Carlsbad, Calif., USA), Buffer (pH 7.4), F-10 Nutrient Mixture (Ham), and 0.1 mg/mL Geneticin, and the suspension was seeded in a 384-well plate (cat #781090, Greiner, Germany) at 20000 cells/25 μL per well.
On the next day after seeding, Viviren (cat#E649X, Promega, Madison, Wis., USA) was added to the medium so that the final concentration could be 4 μmol/L (15 μL/well). The plates were centrifuged and then placed in the dark for 4 hours at room temperature.
Each of the test compounds was dissolved in DMSO to prepare each test sample at a concentration of 1000-fold the final concentration. To the solution was added Hanks/20 mM HEPES/0.2% BSA (cat#A3803, Sigma, St. Louis, Mo., USA), and the concentration was adjusted to 6-fold the final concentration.
FDSS7000 (Hamamatsu Photonics) was used to detect the luminescence signal evoked by α7 nAChR stimulation. The cells and a luminescent substrate were put on a plate, and the test sample was added thereto. […] After the addition of ACh, the luminescence signal (the central wavelength: 465 nm) was measured for 138 seconds to calculate RLU (Max-Min). The ratio of the RLU (Max-Min) of the test-compound-containing wells to that of the control wells was defined as PAM activity.

T1 sequence (P36544 23-502): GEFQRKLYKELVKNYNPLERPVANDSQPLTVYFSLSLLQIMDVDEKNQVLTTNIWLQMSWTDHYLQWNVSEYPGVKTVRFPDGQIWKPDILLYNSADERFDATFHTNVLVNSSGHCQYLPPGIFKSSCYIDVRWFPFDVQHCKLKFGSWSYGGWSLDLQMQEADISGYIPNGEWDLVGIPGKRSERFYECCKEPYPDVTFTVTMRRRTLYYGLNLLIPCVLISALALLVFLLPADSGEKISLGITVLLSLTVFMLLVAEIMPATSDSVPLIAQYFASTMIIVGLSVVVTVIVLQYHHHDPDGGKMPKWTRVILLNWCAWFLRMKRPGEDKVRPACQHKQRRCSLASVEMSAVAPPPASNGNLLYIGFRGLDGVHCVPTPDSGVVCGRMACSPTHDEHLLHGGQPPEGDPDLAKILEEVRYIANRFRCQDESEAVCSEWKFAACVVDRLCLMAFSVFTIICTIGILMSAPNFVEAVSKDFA

SMILES | α7PAM (%) @ 10 μmol/L [%] | also measured
O=C(NC1CCC(F)(F)CC1)N1CCC(n2ncc3cc(F)ccc32)CC1 [Example 28, N-(4,4-difluorocyclohexyl)-4-(5-fluoro-1H-indazol-1-yl)piperidine-1-carboxamide] |  | activity at 10 µM: 340%
Cc1c(Br)ccc2c1cnn2C1CCN(C(=O)NC2CCC(F)(F)CC2)CC1 [Example 286] | 825 | 
CC(C)Oc1cccc2c1cnn2C1CCN(C(=O)NC2CCCCC2)CC1 [Example 180] | 274 | 
O=C(NC1CC(F)(F)C1)N1CCC(n2ncc3cc(C4CC4)ccc32)CC1 [Example 217] | 517 | 
CC(C)Oc1ccc2c(cnn2C2CCN(C(=O)c3ccc(F)cn3)CC2)c1 [Example 115] | 182 | 
COCc1nn(C2CCN(C(=O)NC3CCC(F)(F)CC3)CC2)c2ccc(C)cc12 [Example 36, N-(4,4-difluorocyclohexyl)-4-(3-(methoxymethyl)-5-methyl-1H-indazol-1-yl)piperidine-1-carboxamide] |  | activity at 10 µM: 897%
COC1CC1c1ccc2c(cnn2C2CCN(C(=O)NC3CCC(F)(F)CC3)CC2)c1 (stereo not drawn) [Example 248] | 851 | 
CCc1ccc2c(cnn2[C@H]2CC[C@@H](NC(=O)C3CCCC3)CC2)c1 [Example 123] | 1445 | 
Cc1ccc2c(cnn2C2CCN(C(=O)C3CCC(F)(F)CC3)CC2)c1 [Example 133] | 568 | 
N#Cc1ccc2c(cnn2C2CCN(C(=O)NC3CCC(F)(F)CC3)CC2)c1 [Example 198] | 268 | 
[2H]C([2H])([2H])O[C@H]1CC[C@H](NC(=O)N2CCC(n3ncc4cc(OC(F)(F)F)ccc43)CC2)CC1 [Example 226, N-{trans-4-[(^2H3)methoxy]cyclohexyl}-4-[5-(trifluoromethoxy)-1H-indazol-1-yl]piperidine-1-carboxamide] | 594 | 
O=C(Nc1ccc(C(F)(F)F)nc1)N1CCC(n2ncc3cc(C4CC4)ccc32)CC1 [Example 187] | 220 | 
Cc1ccc2c(cnn2C2CCN(C(=O)NC3CC(F)(F)C3)CC2)c1 [Example 218] | 648 | 
CC(C)Oc1cccc2c1cnn2C1CCN(C(=O)NC2CCC(F)(F)CC2)CC1 [Example 183] | 342 | 
CC(C)Oc1ccc2c(cnn2C2CCN(C(=O)NC3CCCC3)CC2)c1 [Example 49] | 429 | 
O=C(NC1CCC1)N1CCC(n2ncc3cc(C(F)(F)F)ccc32)CC1 [Example 298, N-cyclobutyl-4-[5-(trifluoromethyl)-1H-indazol-1-yl]piperidine-1-carboxamide] |  | activity at 10 µM: 315%
Cc1ccc2c(cnn2C2CCN(C(=O)C3CCC(F)(F)CC3)CC2)c1 [Example 138] | 642 | 
CCOc1c(CC)ccc2c1cnn2C1CCN(C(=O)N[C@H]2CC[C@H](OC)CC2)CC1 [Example 272, 4-(4-ethoxy-5-ethyl-1H-indazol-1-yl)-N-(trans-4-methoxycyclohexyl)piperidine-1-carboxamide] |  | activity at 10 µM: 442%

SMILES | α7PAM (%) @ 10 μmol/L [%] | also measured
CC(C)Oc1ccc2c(cnn2C2CCN(C(=O)C3CCC(F)(F)CC3)CC2)c1 [Example 116] | 279 | 
COc1ccc2c(cnn2C2CCN(C(=O)N[C@@H]3CCCCC3(F)F)CC2)c1 [Example 85] | 1081 | 
O=C(NC1CCCC1)N1CCC(n2ncc3cc(C4CC4)ccc32)CC1 [Example 171] | 1382 | 
Cc1ccc2c(cnn2C2CCN(C(=O)C3CCCCC3)CC2)c1 [Example 105] | 338 | 
COc1ccc(CNC(=O)N2CCC(n3ncc4cc(C5CC5)ccc43)CC2)cc1 [Example 193] | 889 | 
CCOc1c(CC)ccc2c1cnn2C1CCN(C(=O)NC2CCC(F)(F)CC2)CC1 [Example 271] | 931 | 
COCCc1ccc2c(cnn2C2CCN(C(=O)NC3CCC(F)(F)CC3)CC2)c1 [Example 239] | 485 | 
CCc1ccc2c(c1)c(COC)nn2C1CCN(C(=O)NC2CCC(F)(F)CC2)CC1 [Example 157] | 366 | 
CCOc1ccc2c(cnn2C2CCN(C(=O)c3ccc(F)cc3)CC2)c1 [Example 112] | 265 | 
COCC(C)c1ccc2c(cnn2C2CCN(C(=O)NC3CCC(F)(F)CC3)CC2)c1 (stereo not drawn) [Example 252] | 364 | 
CCc1ccc2c(cnn2C2CCN(C(=O)NC3CCOC(C)(C)C3)CC2)c1 (stereo not drawn) [Example 21] | 523 | 
COCc1cccc2c1cnn2C1CCN(C(=O)NC2CCC(F)(F)CC2)CC1 [Example 166] | 711 | 
[2H]C([2H])([2H])Oc1nn(C2CCN(C(=O)NC3CCC(F)(F)CC3)CC2)c2ccc(C(F)(F)F)cc12 [Example 310] | 134 | 
O=C(NC1CCC(F)(F)CC1)N1CCC(n2ncc3cc(-c4cccnc4)ccc32)CC1 [Example 196] | 229 | 
Cc1ccc2c(cnn2C2CCN(C(=O)N[C@@H]3CCCCC3(F)F)CC2)c1 [Example 78, (R)—N-(2,2-difluorocyclohexyl)-4-(5-methyl-1H-indazol-1-yl)piperidine-1-carboxamide] |  | activity at 10 µM: 987%
O=C(NC1CCC(F)(F)CC1)N1CCC(n2ncc3c(OC4CC4)cccc32)CC1 [Example 250] | 1215 | 
COc1ccc2c(cnn2C2CCN(C(=O)NC3CCC(F)(F)CC3)CC2)c1 [Example 41, N-(4,4-difluorocyclohexyl)-4-(5-methoxy-1H-indazol-1-yl)piperidine-1-carboxamide] |  | PAM activity for α7 nAChR (result in words, ratio of RLU (Max-Min) to control wells, ACh EC20): stronger PAM activity than others
CCOCc1cccc2c1cnn2C1CCN(C(=O)NC2CCCCC2)CC1 [Example 167] | 434 | 

More lines, main results first:

α7PAM (%) @ 10 μmol/L [%] | SMILES | also measured
406 | [2H]C([2H])([2H])Oc1nn(C2CCN(C(=O)NC3CCOCC3)CC2)c2ccc(C(F)(F)F)cc12 [Example 309] | 
411 | COC1CCC(NC(=O)N2CCC(n3ncc4cc(Cl)ccc43)CC2)CC1 (stereo not drawn) [Example 35] | 
603 | COC1CCC(NC(=O)N2CCC(n3nc(C4CCOCC4)c4cc(C)ccc43)CC2)CC1 (stereo not drawn) [Example 55] | 
200 | CCOc1cccc2c1cnn2C1CCN(C(=O)N[C@H]2CC[C@@H](OC)CC2)CC1 [Example 184] | 
271 | COCc1c(C2CC2)ccc2c1cnn2C1CCN(C(=O)N[C@H]2CC[C@H](OC)CC2)CC1 [Example 216] | 
924 | COc1ccc2c(c1)c(C1CCOCC1)nn2C1CCN(C(=O)NC2CCC(F)(F)CC2)CC1 [Example 261] | 
181 | CCOc1nn(C2CCN(C(=O)NC3CCOCC3)CC2)c2ccc(OC(F)(F)F)cc12 [Example 265] | 
420 | CCCc1ccc2c(cnn2C2CCN(C(=O)NC3CCC(OC)CC3)CC2)c1 (stereo not drawn) [Example 76] | 
385 | O=C(NC1CCOCC1)N1CCC(n2ncc3cc(Br)ccc32)CC1 [Example 65] | 
89 | COC1CCC(NC(=O)N2CCC(n3ncc4c(Br)cccc43)CC2)CC1 (stereo not drawn) [Example 98] | 
481 | COC1CCC(NC(=O)N2CCC(n3ncc4c(C5CC5)cccc43)CC2)CC1 (stereo not drawn) [Example 37] | 
807 | [2H]C([2H])([2H])O[C@H]1CC[C@H](NC(=O)N2CCC(n3nc(C4CCOCC4)c4cc(C)ccc43)CC2)CC1 [Example 316] | 
886 | [2H]C([2H])([2H])Oc1c(C2CC2)ccc2c1cnn2C1CCN(C(=O)NC2CCOCC2)CC1 [Example 323] | 
181 | COc1nn(C2CCN(C(=O)N[C@H]3CC[C@H](OC)CC3)CC2)c2ccc(C)cc12 [Example 147] | 
356 | CCc1ccc2c(cnn2C2CCN(C(=O)NC3CCC(OC)CC3)CC2)c1 (stereo not drawn) [Example 92] | 
